# From US20090012087A1, “New Aza-Bicyclohexane Compounds Useful As Inhibitors Of Thrombin” (ASTRAZENECA AB, priority 2007, published 2009)
# Where a name gives a salt, the structure may show the parent alone.
# Biological target: T1, Human α-thrombin (Homo sapiens, UniProt P00734)
# T1 construct: Human α-thrombin; purchased Sigma Chemical Co. or Hematologic Technologies
# Experiment: Test A: Determination of Thrombin Inhibition with a Chromogenic, Robotic Assay
# Format: biochemical
# Settings: chromogenic substrate S-2366 0.30 mmol/L, α-thrombin 0.020 NIHU/mL, 40 minutes incubation at 37° C.
# Method: Determination of Thrombin Inhibition with a Chromogenic, Robotic Assay
# The thrombin inhibitor potency is measured with a chromogenic substrate method, in a Plato 3300 robotic microplate processor (Rosys AG, CH-8634 Hombrechtikon, Switzerland), using 96-well, half volume microtitre plates (Costar, Cambridge, Mass., USA; Cat No 3690). Stock solutions of test substance in DMSO (72 μL), 0.1-1 mmol/L, are diluted serially 1:3 (24+48 μL) with DMSO to obtain ten different concentrations, which are analysed as samples in the assay. 2 μL of test sample is diluted with 124 μL assay buffer, 12 μL of chromogenic substrate solution (S-2366, Chromogenix, Mölndal, Sweden) in assay buffer and finally 12 μL of α-thrombin solution (Human α-thrombin, Sigma Chemical Co. or Hematologic Technologies) in assay buffer, are added, and the samples mixed. The final assay concentrations are: test substance 0.00068-133 μmol/L, S-2366 0.30 mmol/L, α-thrombin 0.020 NIHU/mL. The linear absorbance increment during 40 minutes incubation at 37° C. is used for calculation of percentage inhibition for the test samples, as compared to blanks without inhibitor.
row,Compound,IC50
1,"N[C@@H](C(=O)N1[C@H](C(=O)NCc2cc(Cl)ccc2-n2cnnn2)C[C@@H]2C[C@@H]21)c1ccccc1 [Example 43, (1S,3S,5S)-2-((R)-2-Amino-2-phenyl-acetyl)-2-aza-bicyclo[3.1.0]hexane-3-carboxylic acid 5-chloro-2-tetrazol-1-yl-benzylamide]",5 nM
2,"O=C([C@H](O)Cc1ccccc1)N1CC2CC1(C(=O)NCc1cc(Cl)ccc1-n1cnnn1)C2 [Example 29, 2-((R)-2-Hydroxy-3-phenyl-propionyl)-2-aza-bicyclo[2.1.1]hexane-1-carboxylic acid 5-chloro-2-tetrazol-1-yl-benzylamide]",290 nM
3,"CC(C)(C)C[C@@H](O)C(=O)N1CC2CC1(C(=O)NCc1cc(Cl)ccc1-n1cnnn1)C2 [Example 28, 2-((R)-2-Hydroxy-4,4-dimethyl-pentanoyl)-2-aza-bicyclo[2.1.1]hexane-1-carboxylic acid 5-chloro-2-tetrazol-1-yl-benzylamide]",6 nM
4,"CC(C)(C1CC1)C(O)C(=O)N1[C@H](C(=O)NCc2cc(Cl)ccc2-n2cnnn2)C[C@@H]2C[C@@H]21 (stereo partly drawn) [Example 33, (1S,3S,5S)-2-(3-Cyclopropyl-2-hydroxy-3-methyl-butyryl)-2-aza-bicyclo[3.1.0]hexane-3-carboxylic acid 5-chloro-2-tetrazol-1-yl-benzylamide]",10 nM
5,"O=C(N1CC2CC1(C(=O)NCc1cc(Cl)ccc1-n1cnnn1)C2)C1(O)CCOc2ccccc21 (racemic) [Example 64, (rac)-2-(4-Hydroxy-1-benzopyran-4-carbonyl)-2-aza-bicyclo[2.1.1]hexane-1-carboxylic acid 5-chloro-2-tetrazol-1-yl-benzylamide]",40 nM
6,"O=C(NCc1cc(Cl)ccc1-n1cnnn1)[C@@H]1C[C@@H]2C[C@@H]2N1C(=O)C1(O)CCCc2ncccc21 (stereo partly drawn) [Example 76, (1S,3S,5S)-2-(5-Hydroxy-5,6,7,8-tetrahydro-quinoline-5-carbonyl)-2-aza-bicyclo[3.1.0]hexane-3-carboxylic acid 5-chloro-2-tetrazol-1-yl-benzylamide]",11 nM
7,"CC(C)(C)OC[C@@H](O)C(=O)N1CC2CC1(C(=O)NCc1cc(Cl)ccc1-n1cnnn1)C2 [Example 66, 2-((R)-3-tert-Butoxy-2-hydroxy-propionyl)-2-aza-bicyclo[2.1.1]hexane-1-carboxylic acid 5-chloro-2-tetrazol-1-yl-benzylamide]",67 nM
8,"N[C@@H](C(=O)N1[C@H](C(=O)NCc2cc(Cl)ccc2-n2cnnn2)C[C@@H]2C[C@@H]21)c1ccc(O)cc1 [Example 48, (1S,3S,5S)-2-[(R)-2-Amino-2-(4-hydroxy-phenyl)-acetyl]-2-aza-bicyclo[3.1.0]hexane-3-carboxylic acid 5-chloro-2-tetrazol-1-yl-benzylamide hydrochloride]",22 nM
9,"CC(C)(C)OC[C@@H](N)C(=O)N1C[C@@H]2C[C@@H]2[C@H]1C(=O)NCc1cc(Cl)ccc1-n1cnnn1 [Example 54, (1S,2S,5R)-3-((R)-2-Amino-3-tert-butoxy-propionyl)-3-aza-bicyclo[3.1.0]hexane-2-carboxylic acid 5-chloro-2-tetrazol-1-yl-benzylamide acetate]",6 nM
10,"(1S,3S,5S)-2-(4-Hydroxy-1-benzopyran-4-carbonyl)-2-aza-bicyclo[3.1.0]hexane-3-carboxylic acid 5-chloro-2-tetrazol-1-yl-benzylamide [Example 63]",41 nM
11,"N[C@H](CO)C(=O)N1[C@H](C(=O)NCc2cc(Cl)ccc2-n2cnnn2)C[C@@H]2C[C@@H]21 [Example 49, (1S,3S,5S)-2-((R)-2-Amino-3-hydroxy-propionyl)-2-aza-bicyclo[3.1.0]hexane-3-carboxylic acid 5-chloro-2-tetrazol-1-yl-benzylamide hydrochloride]",450 nM
12,"CC(C)(C)C[C@@H](N)C(=O)N1[C@@H]2C[C@@H]2C[C@H]1C(=O)NCc1cc(Cl)ccc1-n1cnnn1 [Example 19, (1R,3S,5R)-2-((R)-2-Amino-4,4-dimethyl-pentanoyl)-2-aza-bicyclo[3.1.0]hexane-3-carboxylic acid 5-chloro-2-tetrazol-1-yl-benzylamide hydrochloride]",4 nM
13,"CC(C)(C)OC[C@@H](N)C(=O)N1[C@H](C(=O)NCc2cc(Cl)ccc2-n2cnnn2)C[C@@H]2C[C@@H]21 [Example 53, (1S,3S,5S)-2-((R)-2-Amino-3-tert-butoxy-propionyl)-2-aza-bicyclo[3.1.0]hexane-3-carboxylic acid 5-chloro-2-tetrazol-1-yl-benzylamide acetate]",5 nM
14,"O=C([C@H](O)c1ccccc1)N1CC2CC1(C(=O)NCc1cc(Cl)ccc1-n1cnnn1)C2 [Example 30, 2-((R)-2-Hydroxy-2-phenyl-acetyl)-2-aza-bicyclo[2.1.1]hexane-1-carboxylic acid 5-chloro-2-tetrazol-1-yl-benzylamide]",47 nM

# Further lines, results first:
row,IC50,Compound
1,36 nM,"O=C(NCc1cc(F)ccc1-n1cnnn1)[C@@H]1C[C@@H]2C[C@@H]2N1C(=O)[C@H](O)c1cccc(Cl)c1 [Example 70, (1S,3S,5S)-2-[(R)-2-(3-Chloro-phenyl)-2-hydroxy-acetyl]-2-aza-bicyclo[3.1.0]hexane-3-carboxylic acid 5-fluoro-2-tetrazol-1-yl-benzylamide]"
2,5 nM,"N[C@@H](C(=O)N1[C@H](C(=O)NCc2cc(Cl)ccc2-n2cnnn2)C[C@@H]2C[C@@H]21)c1cccc(Cl)c1 [Example 71, (1S,3S,5S)-2-[(R)-2-Amino-2-(3-chloro-phenyl)-acetyl]-2-aza-bicyclo[3.1.0]hexane-3-carboxylic acid 5-chloro-2-tetrazol-1-yl-benzylamide]"
3,170 nM,"O=C([C@H](O)CCc1ccccc1)N1CC2CC1(C(=O)NCc1cc(Cl)ccc1-n1cnnn1)C2 [Example 65, 2-((R)-2-Hydroxy-4-phenyl-butyryl)-2-aza-bicyclo[2.1.1]hexane-1-carboxylic acid 5-chloro-2-tetrazol-1-yl-benzylamide]"
4,8 nM,"NC(C(=O)N1[C@H](C(=O)NCc2cc(Cl)ccc2-n2cnnn2)C[C@@H]2C[C@@H]21)c1ccccc1F (stereo partly drawn) [Example 73, (1S,3S,5S)-2-[2-Amino-2-(2-fluoro-phenyl)-acetyl]-2-aza-bicyclo[3.1.0]hexane-3-carboxylic acid 5-chloro-2-tetrazol-1-yl-benzylamide]"
5,780 nM,"O=C(NCc1cc(Cl)ccc1-n1cncn1)[C@@H]1C[C@@H]2C[C@@H]2N1C(=O)C(O)Cn1cncn1 (stereo partly drawn) [Example 69, (1S,3S,5S)-2-(2-Hydroxy-3-1,2,4-triazol-1-yl-propionyl)-2-aza-bicyclo[3.1.0]hexane-3-carboxylic acid 5-chloro-2-1,2,4-triazol-1-yl-benzylamide]"
6,2 nM,"CC(C)(C1CC1)C(O)C(=O)N1C[C@@H]2C[C@@H]2[C@H]1C(=O)NCc1cc(Cl)ccc1-n1cnnn1 (stereo partly drawn) [Example 62, (1S,2S,5R)-3-(3-Cyclopropyl-2-hydroxy-3-methyl-butyryl)-3-aza-bicyclo[3.1.0]hexane-2-carboxylic acid 5-chloro-2-tetrazol-1-yl-benzylamide]"
7,2500 nM,"N[C@H](CO)C(=O)N1[C@@H]2C[C@@H]2C[C@H]1C(=O)NCc1cc(Cl)ccc1-n1cnnn1 [Example 50, (1R,3S,5R)-2-((R)-2-Amino-3-hydroxy-propionyl)-2-aza-bicyclo[3.1.0]hexane-3-carboxylic acid 5-chloro-2-tetrazol-1-yl-benzylamide hydrochloride]"
8,650 nM,"O=C(NCc1cc(Cl)ccc1-n1cnnn1)[C@@H]1[C@H]2C[C@H]2CN1C(=O)[C@H]1COCCN1 [Example 75, (1S,2S,5R)-3-((R)-Morpholine-3-carbonyl)-3-aza-bicyclo[3.1.0]hexane-2-carboxylic acid 5-chloro-2-tetrazol-1-yl-benzylamide acetate]"
9,14 nM,"CC(C)(C1CC1)C(O)C(=O)N1[C@@H]2C[C@@H]2C[C@H]1C(=O)NCc1cc(Cl)ccc1-n1cnnn1 (stereo partly drawn) [Example 60, (1R,3S,5R)-2-(3-Cyclopropyl-2-hydroxy-3-methyl-butyryl)-2-aza-bicyclo[3.1.0]hexane-3-carboxylic acid 5-chloro-2-tetrazol-1-yl-benzylamide]"
10,85 nM,"O=C([C@H](O)C1CCCCC1)N1CC2CC1(C(=O)NCc1cc(Cl)ccc1-n1cnnn1)C2 [Example 67, 2-((R)-2-Cyclohexyl-2-hydroxy-acetyl)-2-aza-bicyclo[2.1.1]hexane-1-carboxylic acid 5-chloro-2-tetrazol-1-yl-benzylamide]"
11,240 nM,"NC(C(=O)N1[C@H](C(=O)NCc2cc(Cl)ccc2-n2cnnn2)C[C@@H]2C[C@@H]21)C1CCS(=O)(=O)CC1 (stereo partly drawn) [Example 72, (1S,3S,5S)-2-[2-Amino-2-(1,1-dioxo-hexahydro-1λ^6-thiopyran-4-yl)-acetyl]-2-aza-bicyclo[3.1.0]hexane-3-carboxylic acid 5-chloro-2-tetrazol-1-yl-benzylamide]"
12,570 nM,"O=C(NCc1cc(Cl)ccc1-n1cnnn1)[C@@H]1[C@H]2C[C@H]2CN1C(=O)C(O)Cn1cncn1 (stereo partly drawn) [Example 52, (1S,2S,5R)-3-(2-Hydroxy-3-1,2,4-triazol-1-yl-propionyl)-3-aza-bicyclo[3.1.0]hexane-2-carboxylic acid 5-chloro-2-tetrazol-1-yl-benzylamide]"
